From patent publication US5459129A, “Condensed heterocyclic compounds, their production and use” (Takeda Chemical Industries, Ltd., priority 1990, dated 1995)

Legend:
[1] = molecular target: T1, thymidylate acid synthase (TS) (Mus musculus, UniProt P07607); test: Determination of TS inhibiting action; type: biochemical; settings: roughly refined TS fraction from Meth A fibrosarcoma cells; [3H]dUMP, 1 hour at 37° C.; read-out: IC50 TS (concentration required for 50% inhibiting the TS activity)
T1 construct: endogenous in cells; host or cells: Meth A fibrosarcoma cells (sonicated; 100,000 x g supernatant)
T1 sequence (P07607 whole entry): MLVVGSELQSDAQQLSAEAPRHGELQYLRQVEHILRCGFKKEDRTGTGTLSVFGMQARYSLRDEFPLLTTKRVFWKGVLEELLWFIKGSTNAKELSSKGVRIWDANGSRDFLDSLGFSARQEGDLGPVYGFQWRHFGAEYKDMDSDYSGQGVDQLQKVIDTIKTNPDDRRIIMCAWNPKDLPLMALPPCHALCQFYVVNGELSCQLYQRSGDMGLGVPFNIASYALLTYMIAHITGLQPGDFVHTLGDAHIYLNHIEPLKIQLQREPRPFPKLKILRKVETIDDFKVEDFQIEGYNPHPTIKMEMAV
Protocol: A roughly refined fraction of TS was prepared from Meth A fibrosarcoma cells serially cultivated in vitro. For culturing the cells, Eagle's minimum essential medium containing 10% (v/v) bovine fetal serum [MEM; Nissui Pharmaceutical Co. Ltd.] was used. The cells in logarithmic growth were recovered and washed twice with a physiological aqueous saline solution buffered with phosphate, which was then suspended in 0.2M sucrose, 0.01M Tris.HCl buffer solution (pH 7.5). The cells were destroyed by ultrasonic wave, and the suspension was subjected to centrifugation (100,000×g), then the supernatant was collected. Using bovine γ-groblin as the standard protein, the protein concentration was measured by using a protein.dye reagent (Bio-Rad), so that the protein concentration was adjusted to 10 mg/ml.
Enzymic reaction was conducted by partially modifying the method described in Biochemistry 5, 3546 (1966). The composition of the reaction medium was as follows; 0.058% (v/v) formaldehyde, 6.78 mM sodium fluoride, 0.2 mM 2-mercapto ethanol, 6.24 mg/ml bovine serum albumin, 80 μM 2'-deoxyuridine-5'-1 phosphoric acid (dUMP), 80 μM tetrahydrofolic acid, 2 mg/ml roughly refined TS fraction and 0.173M Tris.HCl buffer solution (pH 7.5). To the reaction medium were added the compounds of various concentrations obtained in Working Examples. 540 KBg of [^3 H] dUMP relative to 50 μl of the ultimate reaction medium was added, and the reaction was allowed to proceed for 1 hour at 37° C. in a 96-microwell plate. After completion of the reaction, 26.65% trichloroacetic acid and 3.33 mg/ml dUMP were added to suspend the reaction. To the reaction mixture was added 220 μl of 11.4 mg/ml activated charcoal. The whole mixture was subjected to centrifugation, and the radioactivity in 100 μl of the supernatant was measured by liquid scintillation counter to determine the concentration required for 50% inhibiting the TS activity (ICa50), as shown in Table 1.

[2] = molecular target: T2, 5-aminoimidazole-4-carboxyamide ribonucleotide transformylase (AICARTF) (Homo sapiens, UniProt P31939); test: Measurement of AICARTF inhibiting action; type: biochemical; settings: AICARTF prepared from CCRF-CEM human lymphoblast leukemia cells; absorbance at 298 nm for 15 minutes; read-out: IC50 AICARTF (concentration required for 50% inhibiting the activity of AICARTF)
T2 construct: AICARTF was prepared from CCRF-CEM human lymphoblast leukemia cells; endogenous in cells; host or cells: CCRF-CEM human lymphoblast leukemia cells
T2 sequence (P31939 whole entry): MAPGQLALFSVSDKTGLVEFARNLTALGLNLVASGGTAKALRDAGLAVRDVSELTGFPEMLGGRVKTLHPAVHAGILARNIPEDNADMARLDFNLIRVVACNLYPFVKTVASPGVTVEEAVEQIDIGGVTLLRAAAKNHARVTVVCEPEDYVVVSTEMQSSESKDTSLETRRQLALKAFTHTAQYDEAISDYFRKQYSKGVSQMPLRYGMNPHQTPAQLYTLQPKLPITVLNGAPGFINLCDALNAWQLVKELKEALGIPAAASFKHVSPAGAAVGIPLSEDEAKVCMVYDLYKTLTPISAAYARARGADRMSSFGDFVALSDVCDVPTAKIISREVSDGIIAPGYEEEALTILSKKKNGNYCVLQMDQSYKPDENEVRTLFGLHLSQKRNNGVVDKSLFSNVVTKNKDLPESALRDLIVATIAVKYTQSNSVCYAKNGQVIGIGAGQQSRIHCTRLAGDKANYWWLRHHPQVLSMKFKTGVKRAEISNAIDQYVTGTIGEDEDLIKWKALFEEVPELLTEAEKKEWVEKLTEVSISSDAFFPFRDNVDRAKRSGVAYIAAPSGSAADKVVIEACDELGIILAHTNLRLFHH
Protocol: AICARTF was prepared from CCRF-CEM human lymphoblast leukemia cells by partially modifying the method described in Biochemistry 20 337 (1981), S. J. Benkovic, et al.
The enzymic reaction was conducted by adding the compounds of various concentrations in Working Examples to 0.95 ml of a solution consisting of a […] Tris.HCl buffer solution (pH 7.4), 5 μM 2-mercaptoethanol,25 μM potassium chloride, 0.1 μM (-)-10-formyl tetrahydrofolic acid and AICARTF, and, before starting the reaction, 0.05 ml of 1 mM 5-aminoimidazole-4-carboxylamide ribonucleotide.
The UV spectrum was measured at 298 nm for 15 minutes at the interval of 15 seconds to evaluate by the increase of absorbance due to the production of tetrahydrofolic acid to determine the concentration required for 50% inhibiting the activity of AICARTF (IC50).

[3] = system: Meth A fibrosarcoma (Meth A) cells; test: Inhibiting action against growth of Meth A fibrosarcoma cells in vitro; type: cell-based; settings: 72 hours culture, Coulter counter, read-out: IC50 (concentration required for decreasing the number of cells in the untreated control group by 50%)
Protocol: Meth A cells (2×10^4 /ml) prepared by a conventional method were inoculated into each well of the 12-microwell plate (2.0 ml in a well), and subjected to standing culture at 37° C. under 5% CO2. The compounds obtained in Working Examples dissolved at appropriate concentrations were diluted to 2-10 times stepwise with an MEM (Nissui Pharmaceutical Co., Ltd.) solution, to and the resulting dilutions were added to the culture medium. The medium was again subjected to standing culture at 37° C. under 5% CO2 for 72 hours. Then, the total number of cells at each concentration was measured by Coulter counter (Coulter Electronic, Florida in U.S.A.), and the average value of the cells in three wells was expressed by the number of cells per milliliter.
The concentrations of the respective compounds required for decreasing the number of cells in the untreated control group by 50% was made IC50 of the respective compounds.

SMILES | IC50 [1] | IC50 [2] | IC50 [3]
Nc1nc(N)c2c(CCCc3ccc(C(=O)N[C@@H](CCC(=O)N[C@@H](CCC(=O)O)C(=O)O)C(=O)O)cc3)c[nH]c2n1 [Ex. 6, [N-[4-[3-(2,4-diamino-7H-pyrrolo[2,3-d]pyrimidin-5-yl)propyl]benzoyl]-γ-L-glutamyl]-L-glutamic acid] | 36 µM | 9 µM | 0.61 µM
Nc1nc(N)c2c(CCCc3ccc(C(=O)N[C@@H](CCC(=O)N[C@@H](CCC(=O)N[C@@H](CCC(=O)N[C@@H](CCC(=O)N[C@@H](CCC(=O)N[C@@H](CCC(=O)O)C(=O)O)C(=O)O)C(=O)O)C(=O)O)C(=O)O)C(=O)O)cc3)c[nH]c2n1 [Ex. 10, [N-[4-[3-(2,4-diamino-7H-pyrrolo[2,3-d]pyrimidin-5-yl)propyl]benzoyl]-γ-L-glutamyl]-γ-L-glutamyl-γ-L-glutamyl-γ-L-glutamyl-γ-L-glutamyl-L-glutamic acid] | 20 µM | 0.2 µM | 
Nc1nc(N)c2c(CCCc3ccc(C(=O)N[C@@H](CCC(=O)N[C@@H](CCC(=O)N[C@@H](CCC(=O)O)C(=O)O)C(=O)O)C(=O)O)cc3)c[nH]c2n1 [Ex. 7, [N-[4-[3-(2,4-diamino-7H-pyrrolo[2,3-d]pyrimidin-5-yl)propyl]benzoyl]-γ-L-glutamyl]-γ-L-glutamyl-L-glutamic acid] | 40 µM | 6 µM | 0.58 µM
Nc1nc(N)c2c(CCCc3ccc(C(=O)N[C@@H](CCC(=O)N[C@@H](CCC(=O)N[C@@H](CCC(=O)N[C@@H](CCC(=O)N[C@@H](CCC(=O)O)C(=O)O)C(=O)O)C(=O)O)C(=O)O)C(=O)O)cc3)c[nH]c2n1 [Ex. 9, [N-[4-[3-(2,4-diamino-7H-pyrrolo[2,3-d]pyrimidin-5-yl)propyl]benzoyl]-γ-L-glutamyl]-γ-L-glutamyl-γ-L-glutamyl-γ-L-glutamyl-L-glutamic acid] | 20 µM | 0.4 µM | 
Nc1nc(N)c2c(CCCc3ccc(C(=O)N[C@@H](CCC(=O)N[C@@H](CCC(=O)N[C@@H](CCC(=O)O)C(=O)O)C(=O)O)C(=O)O)cc3)c[nH]c2n1 [Ex. 8, [N-[4-[3-(2,4-diamino-7H-pyrrolo[2,3-d]pyrimidin-5-yl)propyl]benzoyl]-γ-L-glutamyl]-γ-L-glutamyl-γ-L-glutamic acid] | 21 µM | 0.6 µM | 
